According to US8956160B2, “Device and method for delivering an oral care agent” (Ranir, LLC, priority 2002, dated 2015):

Test: Accelerated H2O2 stability study with individual ingredients of backing, anchor and oral care layers
Type: physicochemical
Details: 40° C./75% RH, up to 9 weeks
Description: Accelerated H2O2 stability studies were conducted at 40° C./75% relative humidity (RH) with the individual ingredients used to form the backing, anchor and oral care layers as described in Example 1.

Question: With OO [Device H2O2, hydrogen peroxide] as the compound, how does the H2O2 stability read?
Answer: good stability
